Experimental data: patent US20230085307A1, “PYRIDAZINONE COMPOUND AND HERBICIDE” (NISSAN CHEMICAL CORPORATION, priority 2019, published 2023)

Columns and labels:
wild oat = test: Test Example 5: herbicidal effect by foliage application, plastic box (Table 20, symbol I); assay type: in vivo, wild oat (Avena fatua); settings: 320 g/ha; for herbicidal effect on I: wild oat (evaluation grade 0-5): foliage application after 14-day growth, evaluated three weeks after application
In short: (§1)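 Plants sown in sterilized diluvial soil and grown 14 days in a greenhouse at 25° C to 30° C, then sprayed on the foliage with the compound's emulsion diluted in water to a predetermined herbicide amount. Injury to weeds and crops scored three weeks after application on a visual rating scale.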

blackgrass = test: Test Example 5: herbicidal effect by foliage application, plastic box (Table 20, symbol J); assay type: in vivo, blackgrass (Alopecurus myosuroides); settings: 320 g/ha; for herbicidal effect on J: blackgrass (evaluation grade 0-5): foliage application after 14-day growth, evaluated three weeks after application
In short: as §1

persian speedwell = test: Test Example 5: herbicidal effect by foliage application, plastic box (Table 20, symbol R); assay type: in vivo, Persian speedwell (Veronica persica); settings: 320 g/ha; for herbicidal effect on R: persian speedwell (evaluation grade 0-5): foliage application after 14-day growth, evaluated three weeks after application
In short: as §1

barnyard grass [1] = test: Test Example 3: herbicidal effect by foliage application, Wagner pot (Table 18, symbol H); assay type: in vivo, barnyard grass (Echinochloa crus-galli); settings: 320 g/ha
In short: (§2)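 Plants were sown in alluvial soil held under 0.1–0.5 cm standing water and grown 14 days in a greenhouse at 25–30 °C. An emulsifiable formulation, water-diluted to the set dose, was then sprayed onto the foliage, and effects were scored three weeks later using previously defined criteria.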

Japanese bulrush = test: Test Example 1: herbicidal activity, application before weed generation under submerged conditions (Table 16, symbol B); assay type: in vivo, Japanese bulrush (Schoenoplectus juncoides); settings: amount of applied herbicide 320 g/ha
In short: (§3)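 Emulsion formulation, water-diluted to set dose, was put onto the flooded surface (4 cm depth, alluvial soil) the same day weeds were sown and 2.5-leaf rice transplanted. After 3 weeks at 25-30 °C under glass, each species was rated 0 (≤5% kill) to 5 (≥90% kill).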

Chinese sprangletop = test: Test Example 3: herbicidal effect by foliage application, Wagner pot (Table 18, symbol D); assay type: in vivo, chinese sprangletop (Leptochloa chinensis); settings: 320 g/ha
In short: as §2

oval-leafed pondweed = test: Test Example 1: herbicidal activity, application before weed generation under submerged conditions (Table 16, symbol C); assay type: in vivo, oval-leafed pondweed (Monochoria vaginalis); settings: amount of applied herbicide 320 g/ha
In short: as §3

windgrass = test: Test Example 5: herbicidal effect by foliage application, plastic box (Table 20, symbol L); assay type: in vivo, windgrass (Apera spica-venti); settings: 320 g/ha; for herbicidal effect on L: windgrass (evaluation grade 0-5): foliage application after 14-day growth, evaluated three weeks after application
In short: as §1

redroot pigweed = test: Test Example 5: herbicidal effect by foliage application, plastic box (Table 20, symbol N); assay type: in vivo, redroot pigweed (Amaranthus retroflexus); settings: 320 g/ha; for herbicidal effect on N: redroot pigweed (evaluation grade 0-5): foliage application after 14-day growth, evaluated three weeks after application
In short: as §1

velvetleaf = test: Test Example 5: herbicidal effect by foliage application, plastic box (Table 20, symbol M); assay type: in vivo, velvetleaf (Abutilon theophrasti); settings: 320 g/ha; for herbicidal effect on M: velvetleaf (evaluation grade 0-5): foliage application after 14-day growth, evaluated three weeks after application
In short: as §1

Italian ryegrass = test: Test Example 5: herbicidal effect by foliage application, plastic box (Table 20, symbol K); assay type: in vivo, Italian ryegrass (Lolium multiflorum); settings: 320 g/ha; for herbicidal effect on K: Italian ryegrass (evaluation grade 0-5): foliage application after 14-day growth, evaluated three weeks after application
In short: as §1

barnyard grass [2] = test: Test Example 5: herbicidal effect by foliage application, plastic box (Table 20, symbol H); assay type: in vivo, barnyard grass (Echinochloa crus-galli); settings: 320 g/ha; for herbicidal effect on H: barnyard grass (evaluation grade 0-5): foliage application after 14-day growth, evaluated three weeks after application
In short: as §1

late watergrass = test: Test Example 1: herbicidal activity, application before weed generation under submerged conditions (Table 16, symbol A); assay type: in vivo, late watergrass (Echinochloa oryzicola); settings: amount of applied herbicide 320 g/ha
In short: as §3

lambsquarters = test: Test Example 5: herbicidal effect by foliage application, plastic box (Table 20, symbol O); assay type: in vivo, lambsquarters (Chenopodium album); settings: 320 g/ha; for herbicidal effect on O: lambsquarters (evaluation grade 0-5): foliage application after 14-day growth, evaluated three weeks after application
In short: as §1

rice flat sedge = test: Test Example 3: herbicidal effect by foliage application, Wagner pot (Table 18, symbol E); assay type: in vivo, rice flat sedge (Cyperus iria); settings: 320 g/ha
In short: as §2

southern crabgrass = test: Test Example 5: herbicidal effect by foliage application, plastic box (Table 20, symbol F); assay type: in vivo, southern crabgrass (Digitaria ciliaris); settings: 320 g/ha; for herbicidal effect on F: southern crabgrass (evaluation grade 0-5): foliage application after 14-day growth, evaluated three weeks after application
In short: as §1

green foxtail = test: Test Example 5: herbicidal effect by foliage application, plastic box (Table 20, symbol G); assay type: in vivo, green foxtail (Setaria viridis); settings: 320 g/ha; for herbicidal effect on G: green foxtail (evaluation grade 0-5): foliage application after 14-day growth, evaluated three weeks after application
In short: as §1

chickweed = test: Test Example 5: herbicidal effect by foliage application, plastic box (Table 20, symbol P); assay type: in vivo, common chickweed (Stellaria media); settings: 320 g/ha; for herbicidal effect on P: chickweed (evaluation grade 0-5): foliage application after 14-day growth, evaluated three weeks after application
In short: as §1

[3] = foliage application, three weeks after application

SMILES	herbicidal effect on barnyard grass (H) (barnyard grass [1])	Herbicidal effect, B: Japanese bulrush (Japanese bulrush)	herbicidal effect on Chinese sprangletop (D) (Chinese sprangletop)	Herbicidal effect, C: oval-leafed pondweed (oval-leafed pondweed)	Herbicidal effect, A: late watergrass (late watergrass)	herbicidal effect on rice flat sedge (E) (rice flat sedge)	herbicidal effect on I: wild oat (evaluation grade 0-5) (wild oat)	herbicidal effect on J: blackgrass (evaluation grade 0-5) (blackgrass)	herbicidal effect on R: persian speedwell (evaluation grade 0-5) (persian speedwell)	herbicidal effect on L: windgrass (evaluation grade 0-5) (windgrass)	herbicidal effect on N: redroot pigweed (evaluation grade 0-5) (redroot pigweed)	herbicidal effect on M: velvetleaf (evaluation grade 0-5) (velvetleaf)	herbicidal effect on K: Italian ryegrass (evaluation grade 0-5) (Italian ryegrass)	herbicidal effect on H: barnyard grass (evaluation grade 0-5) (barnyard grass [2])	herbicidal effect on O: lambsquarters (evaluation grade 0-5) (lambsquarters)	herbicidal effect on F: southern crabgrass (evaluation grade 0-5) (southern crabgrass)	herbicidal effect on G: green foxtail (evaluation grade 0-5) (green foxtail)	herbicidal effect on P: chickweed (evaluation grade 0-5) (chickweed)	further results
COc1ccccc1-c1sc2cc(CO)ccc2c1-c1c(O)c(C)nn(C)c1=O [3-135]	4 (Herbicidal rate of 70% or more and less than 90%)	2 (Herbicidal rate of 20% or more and less than 40%)	3 (Herbicidal rate of 40% or more and less than 70%)	0 (Herbicidal rate of 5% or less (almost no effect))	2 (Herbicidal rate of 20% or more and less than 40%)	2 (Herbicidal rate of 20% or more and less than 40%)	–	–	–	–	–	–	–	–	–	–	–	–	I: wild oat, herbicidal effect grade (wild oat; [3]): 4 (Herbicidal rate of 70% or more and less than 90%); J: blackgrass, herbicidal effect grade (blackgrass; [3]): 3 (Herbicidal rate of 40% or more and less than 70%); R: persian speedwell, herbicidal effect grade (persian speedwell; [3]): 4 (Herbicidal rate of 70% or more and less than 90%); L: windgrass, herbicidal effect grade (windgrass; [3]): 2 (Herbicidal rate of 20% or more and less than 40%); N: redroot pigweed, herbicidal effect grade (redroot pigweed; [3]): 4 (Herbicidal rate of 70% or more and less than 90%); M: velvetleaf, herbicidal effect grade (velvetleaf; [3]): 3 (Herbicidal rate of 40% or more and less than 70%); K: Italian ryegrass, herbicidal effect grade (Italian ryegrass; [3]): 3 (Herbicidal rate of 40% or more and less than 70%); H: barnyard grass, herbicidal effect grade (barnyard grass [2]; [3]): 3 (Herbicidal rate of 40% or more and less than 70%); O: lambsquarters, herbicidal effect grade (lambsquarters; [3]): 2 (Herbicidal rate of 20% or more and less than 40%); F: southern crabgrass, herbicidal effect grade (southern crabgrass; [3]): 4 (Herbicidal rate of 70% or more and less than 90%); G: green foxtail, herbicidal effect grade (green foxtail; [3]): 5 (Herbicidal rate of 90% or more (almost completely withered)); P: chickweed, herbicidal effect grade (chickweed; [3]): 4 (Herbicidal rate of 70% or more and less than 90%)
CCCC(=O)Oc1c(C)nn(C)c(=O)c1-c1c(-c2ccccc2C)sc2c(Cl)cccc12 [4-061]	3 (Herbicidal rate of 40% or more and less than 70%)	0 (Herbicidal rate of 5% or less (almost no effect))	3 (Herbicidal rate of 40% or more and less than 70%)	0 (Herbicidal rate of 5% or less (almost no effect))	3 (Herbicidal rate of 40% or more and less than 70%)	4 (Herbicidal rate of 70% or more and less than 90%)	0 (Herbicidal rate of 5% or less (almost no effect))	0 (Herbicidal rate of 5% or less (almost no effect))	2 (Herbicidal rate of 20% or more and less than 40%)	0 (Herbicidal rate of 5% or less (almost no effect))	2 (Herbicidal rate of 20% or more and less than 40%)	0 (Herbicidal rate of 5% or less (almost no effect))	0 (Herbicidal rate of 5% or less (almost no effect))	0 (Herbicidal rate of 5% or less (almost no effect))	0 (Herbicidal rate of 5% or less (almost no effect))	0 (Herbicidal rate of 5% or less (almost no effect))	0 (Herbicidal rate of 5% or less (almost no effect))	3 (Herbicidal rate of 40% or more and less than 70%)	–
CCc1ccccc1-c1sc2c(Cl)cccc2c1-c1c(O)c(C)nn(C)c1=O [4-062]	4 (Herbicidal rate of 70% or more and less than 90%)	2 (Herbicidal rate of 20% or more and less than 40%)	4 (Herbicidal rate of 70% or more and less than 90%)	0 (Herbicidal rate of 5% or less (almost no effect))	0 (Herbicidal rate of 5% or less (almost no effect))	3 (Herbicidal rate of 40% or more and less than 70%)	0 (Herbicidal rate of 5% or less (almost no effect))	0 (Herbicidal rate of 5% or less (almost no effect))	3 (Herbicidal rate of 40% or more and less than 70%)	0 (Herbicidal rate of 5% or less (almost no effect))	3 (Herbicidal rate of 40% or more and less than 70%)	2 (Herbicidal rate of 20% or more and less than 40%)	0 (Herbicidal rate of 5% or less (almost no effect))	1 (Herbicidal rate of 5% or more and less than 20%)	0 (Herbicidal rate of 5% or less (almost no effect))	1 (Herbicidal rate of 5% or more and less than 20%)	3 (Herbicidal rate of 40% or more and less than 70%)	3 (Herbicidal rate of 40% or more and less than 70%)	–
CCCC(=O)Oc1c(C)nn(C)c(=O)c1-c1c(-c2cccc(OC)c2)sc2c(Cl)cccc12 [4-065]	4 (Herbicidal rate of 70% or more and less than 90%)	0 (Herbicidal rate of 5% or less (almost no effect))	3 (Herbicidal rate of 40% or more and less than 70%)	1 (Herbicidal rate of 5% or more and less than 20%)	4 (Herbicidal rate of 70% or more and less than 90%)	3 (Herbicidal rate of 40% or more and less than 70%)	0 (Herbicidal rate of 5% or less (almost no effect))	0 (Herbicidal rate of 5% or less (almost no effect))	3 (Herbicidal rate of 40% or more and less than 70%)	0 (Herbicidal rate of 5% or less (almost no effect))	5 (Herbicidal rate of 90% or more (almost completely withered))	1 (Herbicidal rate of 5% or more and less than 20%)	0 (Herbicidal rate of 5% or less (almost no effect))	0 (Herbicidal rate of 5% or less (almost no effect))	2 (Herbicidal rate of 20% or more and less than 40%)	0 (Herbicidal rate of 5% or less (almost no effect))	0 (Herbicidal rate of 5% or less (almost no effect))	3 (Herbicidal rate of 40% or more and less than 70%)	–
